Where two headings read alike, the source gives them in different places.
Assays:
T7 RNA polymerase = T7 RNA polymerase (Escherichia phage T7, UniProt P00573); settings: for transcripts biotinylated (incorporation rate): DNA6 template obtained by ligation; for misincorporation opposite natural bases, yield of biotinylated transcripts / misincorporation per base position in the 152-mer transcripts: DNAcont2 template
Procedure: 152-mer RNAs transcribed with Bio-PaTP from DNA6 template obtained by ligation and DNAcont2 template obtained by PCR amplification (20 cycles), as well as 152-mer RNAs transcribed with biotinylated UTP (Bio-UTP) from DNAcont5 and DNAcont6 templates obtained by ligation were mixed with streptavidin. Biotinylated RNA-streptavidin complexes were separated from free RNAs on a 7% polyacrylamide-7 M urea gel, and the percentages (yields) of the complexes were determined from their band intensity.
Transcription (20 μl) was performed for 6 hours at 37° C. using 3 μCi [γ-^32P]GTP, 2 mM each natural NTP, 0-4 mM Bio-PaTP (biotinylated Pa substrate: chemically synthesized as shown in Example IV), and 30 nM template (DNA6 and DNAcont2 (see FIG. 6), obtained by both ligation and PCR amplification).
For control reactions using DNAcont5 and DNAcont6 obtained by ligation (see FIG. 6), transcription was performed only with 2 mM ATP, GTP and CTP in the presence or absence of 2 mM Bio-UTP (biotin-16-uridine-5′-triphosphate, Roche Applied Science). The products were analyzed and purified on a 7-10% polyacrylamide-7 M urea gel.
The biotinylated RNA transcripts were detected by gel shift assay using streptavidin. A mixture (10 μl) of 2 pmol ^32P-labeled transcript and 100 pmol streptavidin (Promega) was incubated at 20° C. for 1 hour in 10 mM Tris-HCl buffer (pH 7.6) containing 50 mM NaCl and 10 mM EDTA. The biotinylated RNA-streptavidin complexes were analyzed by electrophoresis on a 7% polyacrylamide-7 M urea gel. To determine the position where Bio-Pa was introduced, each RNA (152-mer) was labeled with [γ-^32P]ATP (Perkin Elmer) after 5′-dephosphorylation with calf intestinal alkaline phosphatase (Takara). The labeled RNA was partially digested with RNase T1 at 55° C. for 12 minutes in 13.3 mM sodium citrate buffer (pH 5.0) containing 4.7 M urea, 0.7 mM EDTA and 0.17 mg/ml E. coli tRNA, or with alkali at 90° C. for 15 minutes in 32 mM sodium carbonate buffer (pH 9.1) containing 0.6 mM EDTA. The alkali-digested RNA solution (9 μl) was mixed with 11 μl of 20 mM Tris-HCl buffer (pH 7.6) containing 150 mM NaCl, and the mixture (10 μl) was then incubated with streptavidin magnetic beads (0.4 mg) (New England BioLabs) for 5 minutes at room temperature to capture the biotinylated RNA. An aliquot (5 μl) of the supernatant was analyzed together with other digested samples on a 10% polyacrylamide-7 M urea gel.

[1] = test system: Klenow fragment (KF exo+ / KF exo−); settings: FIG. 2e
Procedure: (§1) [FIG. 2d] FIGS. 2a to 2e show single nucleotide insertion and primer extension experiments with an unnatural base pair system based on Ds-Pa base pairing.
(§2) [FIG. 2e] FIGS. 2a to 2e show single nucleotide insertion and primer extension experiments with an unnatural base pair system based on Ds-Pa base pairing.
(§3) A 5′-^32P-labeled primer (23-mer) and template DNA (35-mer) were annealed into duplex form in 20 mM Tris-HCl (pH 7.5) buffer containing 14 mM MgCl2 and 0.2 mM DTT. The duplex solution (400 nM, 5 μl) was mixed with each 5× dNTP solution (2 μl) on ice, followed by addition of 3 μl enzyme solution containing KF exo^− (1 unit) or KF exo^+ (1 unit) (TAKARA) to start the reaction. After the reaction solution was incubated at 37° C. for 3 or 5 minutes, a dye solution (10 μl) containing 89 mM Tris-borate, 2 mM EDTA, 10 M urea and 0.05% BPB was added to stop the reaction. […] The products on the gel were analyzed with a bio-imaging analyzer (model BAS2500, Fuji).

[2] = biological target: T1, Klenow fragment lacking exonuclease activity (KF exo−) (Escherichia coli, UniProt P00582, D355A/E357A); assay type: biochemical, E. coli; settings: for Efficiency (Vmax/KM) / Km / Vmax: 37° C.; for inserted products (KM, Vmax n.d.): 20 minutes, 1500 μM nucleoside 5′-triphosphate, 50 nM enzyme
T1 construct: enzyme solution of the Klenow fragment lacking exonuclease activity (KF exo^−, Amersham USB); purchased Amersham USB
Procedure: The single nucleotide insertion experiment was performed as described in documents (Non-patent Documents 30-32). A primer (20-mer) labeled with 6-carboxylfluorescein at the 5′-end was annealed with template DNA (35-mer) by heating at 95° C. and slow cooling to 4° C. in 100 mM Tris-HCl (pH 7.5) buffer containing 20 mM MgCl2, 2 mM DTT and 0.1 mg/ml bovine serum albumin. The primer-template duplex solution (10 μM, 5 μl) was mixed with 2 μl enzyme solution of the Klenow fragment lacking exonuclease activity (KF exo^−, Amersham USB). After the mixture was incubated for 2 minutes, each dNTP solution (3 μl) was added to this solution to start the reaction at 37° C. The amount of the enzyme used (5-50 nM), the reaction time (1-35 minutes) and the gradient concentration of each dNTP (0.3-1500 μM) were adjusted to ensure conditions giving 25% or less products. The reaction was stopped with 10 μl stop solution (95% formamide and 20 mM EDTA), and the mixture was immediately heated at 75° C. for 3 minutes. The diluted products were analyzed in an automated ABI377 DNA sequencer equipped with GeneScan software (version 3.0) (Non-patent Document 32). The relative velocity (v0) was calculated by dividing the extent of reaction by the reaction time, and then normalized to the enzyme concentration (20 nM) for the various enzyme concentrations used. Kinetic parameters (KM and Vmax) were obtained from Hanes-Woolf plots of [dNTP]/v0 against [dNTP].
Each parameter was averaged from 3 to 8 data sets.

[3] = biological target: Klenow fragment (KF exo+ / KF exo−) (Escherichia coli, UniProt P00582); settings: dPaTP and natural substrates in the presence of the named substrate (0.5 or 1 molar equivalent of dPaTP); FIG. 2d
Procedure: as §1, §2, §3

T1 sequence (P00582 324-928 D355A/E357A): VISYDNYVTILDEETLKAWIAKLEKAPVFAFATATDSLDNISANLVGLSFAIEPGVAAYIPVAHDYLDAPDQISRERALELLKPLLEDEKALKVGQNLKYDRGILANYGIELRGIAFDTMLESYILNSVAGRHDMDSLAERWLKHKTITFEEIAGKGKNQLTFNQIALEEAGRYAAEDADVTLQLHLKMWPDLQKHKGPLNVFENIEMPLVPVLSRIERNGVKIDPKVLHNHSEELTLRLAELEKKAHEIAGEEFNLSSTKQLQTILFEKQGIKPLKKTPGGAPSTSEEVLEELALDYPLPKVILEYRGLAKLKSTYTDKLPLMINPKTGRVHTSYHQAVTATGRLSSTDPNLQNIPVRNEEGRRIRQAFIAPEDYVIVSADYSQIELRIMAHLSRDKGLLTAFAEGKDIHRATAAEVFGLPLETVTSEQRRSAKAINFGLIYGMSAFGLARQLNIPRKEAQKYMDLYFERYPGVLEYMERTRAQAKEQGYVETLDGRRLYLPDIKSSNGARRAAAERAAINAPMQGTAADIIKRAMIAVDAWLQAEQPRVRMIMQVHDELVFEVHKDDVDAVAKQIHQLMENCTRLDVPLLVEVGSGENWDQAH
Chain of T7 RNA polymerase (P00573 whole entry, the tested form may be a part): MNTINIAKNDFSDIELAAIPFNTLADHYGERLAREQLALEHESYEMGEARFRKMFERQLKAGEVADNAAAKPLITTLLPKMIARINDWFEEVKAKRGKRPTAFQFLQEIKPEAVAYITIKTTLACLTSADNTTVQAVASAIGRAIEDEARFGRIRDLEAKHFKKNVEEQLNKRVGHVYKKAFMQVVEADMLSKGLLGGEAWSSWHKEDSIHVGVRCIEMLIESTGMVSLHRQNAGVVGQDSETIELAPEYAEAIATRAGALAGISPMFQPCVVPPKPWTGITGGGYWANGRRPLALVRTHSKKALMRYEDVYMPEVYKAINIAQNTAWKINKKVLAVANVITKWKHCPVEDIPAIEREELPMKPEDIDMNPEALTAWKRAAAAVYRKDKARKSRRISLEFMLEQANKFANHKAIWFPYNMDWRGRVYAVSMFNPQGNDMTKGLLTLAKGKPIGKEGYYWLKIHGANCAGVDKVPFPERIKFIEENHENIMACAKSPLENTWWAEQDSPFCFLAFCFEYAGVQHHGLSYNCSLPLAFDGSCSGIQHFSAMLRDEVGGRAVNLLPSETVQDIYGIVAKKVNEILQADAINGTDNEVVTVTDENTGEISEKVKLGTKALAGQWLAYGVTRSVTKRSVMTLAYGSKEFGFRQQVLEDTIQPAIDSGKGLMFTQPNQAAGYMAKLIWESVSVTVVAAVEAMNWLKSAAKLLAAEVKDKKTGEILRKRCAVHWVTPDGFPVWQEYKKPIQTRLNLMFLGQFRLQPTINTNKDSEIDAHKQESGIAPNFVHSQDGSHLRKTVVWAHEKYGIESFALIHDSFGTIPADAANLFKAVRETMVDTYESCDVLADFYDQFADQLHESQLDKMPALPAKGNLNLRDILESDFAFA
Chain of Klenow fragment (KF exo+ / KF exo−) (Escherichia coli, UniProt P00582) (P00582 324-928): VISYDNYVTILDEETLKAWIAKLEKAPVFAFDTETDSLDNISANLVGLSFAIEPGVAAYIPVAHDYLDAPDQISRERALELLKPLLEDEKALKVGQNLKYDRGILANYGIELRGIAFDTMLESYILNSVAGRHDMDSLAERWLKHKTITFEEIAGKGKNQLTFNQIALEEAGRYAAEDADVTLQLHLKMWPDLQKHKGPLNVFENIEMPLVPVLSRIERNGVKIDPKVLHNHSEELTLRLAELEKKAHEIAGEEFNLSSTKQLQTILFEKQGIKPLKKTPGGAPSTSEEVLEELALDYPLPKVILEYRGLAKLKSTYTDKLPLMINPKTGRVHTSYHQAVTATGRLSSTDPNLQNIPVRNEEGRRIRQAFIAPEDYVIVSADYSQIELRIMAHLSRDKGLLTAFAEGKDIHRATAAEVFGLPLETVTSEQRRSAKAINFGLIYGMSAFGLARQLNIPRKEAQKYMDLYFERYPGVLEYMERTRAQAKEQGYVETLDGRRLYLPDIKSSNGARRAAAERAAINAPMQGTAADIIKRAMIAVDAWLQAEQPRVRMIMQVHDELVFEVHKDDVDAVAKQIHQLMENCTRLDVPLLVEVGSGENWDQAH

Row | Compound | Efficiency (Vmax/KM) ([2]; template (N) = C, temp35N-2) | Km ([2]; template (N) = C, temp35N-2) | Vmax ([2]; template (N) = C, temp35N-2) | Efficiency (Vmax/KM) ([2]; template (N) = Ds, temp35N-1) | Km ([2]; template (N) = Ds, temp35N-1) | Vmax ([2]; template (N) = Ds, temp35N-1) | Efficiency (Vmax/KM) ([2]; template (N) = Pa, temp35N-2) | Km ([2]; template (N) = Pa, temp35N-2) | Vmax ([2]; template (N) = Pa, temp35N-2) | Efficiency (Vmax/KM) ([2]; template (N) = Pa′, temp35N-2) | Km ([2]; template (N) = Pa′, temp35N-2) | Vmax ([2]; template (N) = Pa′, temp35N-2) | Efficiency (Vmax/KM) ([2]; template (N) = T, temp35N-2) | Km ([2]; template (N) = T, temp35N-2) | Vmax ([2]; template (N) = T, temp35N-2) | Efficiency (Vmax/KM) ([2]; template (N) = A, temp35N-1) | Km ([2]; template (N) = A, temp35N-1) | Vmax ([2]; template (N) = A, temp35N-1) | Efficiency (Vmax/KM) ([2]; template (N) = G, temp35N-1) | Km ([2]; template (N) = G, temp35N-1) | further results
1 | O=Cc1cc(C#CCNC(=O)CCCC[C@@H]2SC[C@@H]3NC(=O)N[C@@H]32)cn1[C@@H]1O[C@H](COP(=O)(O)OP(=O)(O)OP(=O)(O)O)[C@@H](O)[C@H]1O [Bio-PaTP, 1-(β-D-ribofuranosyl)-4-[(3-biotinamido-1-propynyl)]pyrrole-2-carbaldehyde 5′-triphosphate] | – | – | – | – | – | – | – | – | – | – | – | – | – | – | – | – | – | – | – | – | transcripts biotinylated (incorporation rate) (T7 RNA polymerase; 2 mM Bio-PaTP): 90%; transcripts biotinylated (incorporation rate) (T7 RNA polymerase; 4 mM Bio-PaTP): 96%; misincorporation opposite natural bases, yield of biotinylated transcripts (T7 RNA polymerase; 2 mM Bio-PaTP): 9%; misincorporation per base position in the 152-mer transcripts (T7 RNA polymerase; 2 mM Bio-PaTP): 0.06%; misincorporation opposite natural bases, yield of biotinylated transcripts (T7 RNA polymerase; 4 mM Bio-PaTP): 16%; misincorporation per base position in the 152-mer transcripts (T7 RNA polymerase; 4 mM Bio-PaTP): 0.12%; reduction of incorporation rate with template obtained by PCR amplification (T7 RNA polymerase; template from PCR (20 cycles), FIG. 44d, Lanes 9 and 11): 3-4%
2 | Nc1ncnc2c1ncn2[C@H]1C[C@H](O)[C@@H](COP(=O)(O)OP(=O)(O)OP(N)(=O)O)O1 [dATPN, 6-Amino-9-(2-deoxy-β-D-ribofuranosyl)purine 5′-γ-amidotriphosphate] | 3.4 × 10^2 % min^−1M^−1 | 590 µM | 0.20 % min^−1 | 3.2 × 10^2 % min^−1M^−1 | 150 µM | 0.048 % min^−1 | 1.8 × 10^3 % min^−1M^−1 | 1200 µM | 2.2 % min^−1 | 3.0 × 10^3 % min^−1M^−1 | 800 µM | 2.4 % min^−1 | 2.5 × 10^5 % min^−1M^−1 | 13 µM | 3.2 % min^−1 | – | – | – | – | – | extension reaction after misincorporation opposite template Pa, compared to dATP ([1]; Lanes 4 and 5): significantly reduced efficiency; primer extension after incorporation of the substrate ([1]; dDsTPN opposite template Pa, dATPN opposite template T, Lanes 2 and 14): proceeded efficiently
3 | O=P(O)(O)OP(=O)(O)OP(=O)(O)OC[C@H]1O[C@@H](n2cnc3c(-c4cccs4)ccnc32)C[C@@H]1O [dDsTP, 7-(2-Thienyl)-3-(2-deoxy-β-ribofuranosyl)-3H-imidazo[4,5-b]pyridine 5′-triphosphate] | 2.8 × 10^4 % min^−1M^−1 | 47 µM | 1.3 % min^−1 | 2.0 × 10^5 % min^−1M^−1 | 8 µM | 1.6 % min^−1 | 1.1 × 10^4 % min^−1M^−1 | 26 µM | 28 % min^−1 | 8.8 × 10^5 % min^−1M^−1 | 24 µM | 21 % min^−1 | 8.7 × 10^4 % min^−1M^−1 | 45 µM | 3.9 % min^−1 | – | – | – | – | – | primer extension with KF exo+ on Ds-containing template [3]: inhibited; Efficiency (Vmax/KM) ([2]; template (N) = A, temp35N-2): 3.6 × 10^4 % min^−1M^−1; Km ([2]; template (N) = A, temp35N-2): 33 µM; Vmax ([2]; template (N) = A, temp35N-2): 1.2 % min^−1; Efficiency (Vmax/KM) ([2]; template (N) = G, temp35N-2): 4.1 × 10^4 % min^−1M^−1; Km ([2]; template (N) = G, temp35N-2): 37 µM; Vmax ([2]; template (N) = G, temp35N-2): 1.5 % min^−1
4 | Nc1nc2c(ncn2[C@H]2C[C@H](O)[C@@H](COP(=O)(O)OP(=O)(O)OP(=O)(O)O)O2)c(=O)[nH]1 [dGTP, reference compound] | 7.0 × 10^6 % min^−1M^−1 | 2.3 µM | 16 % min^−1 | – | – | – | 8.8 × 10^2 % min^−1M^−1 | 480 µM | 0.42 % min^−1 | 5.5 × 10^2 % min^−1M^−1 | 800 µM | 0.44 % min^−1 | 2.9 × 10^3 % min^−1M^−1 | 420 µM | 12 % min^−1 | – | – | – | – | – | inserted products (KM, Vmax n.d.) ([2]; template (N) = Ds, temp35N-1): n.d.^c (Minimal inserted products (<2%) were detected after incubation for 20 minutes with 1500 μM nucleoside 5′-triphosphate and 50 nM enzyme.)
5 | O=Cc1cccn1[C@H]1C[C@H](O)[C@@H](COP(=O)(O)OP(=O)(O)OP(=O)(O)O)O1 [dPaTP] | – | – | – | 6.2 × 10^4 % min^−1M^−1 | 340 µM | 21 % min^−1 | 1.5 × 10^3 % min^−1M^−1 | 380 µM | 0.56 % min^−1 | – | – | – | – | – | – | 5.2 × 10^4 % min^−1M^−1 | 330 µM | 17 % min^−1 | 4.4 × 10^2 % min^−1M^−1 | 140 µM | inserted products (KM, Vmax n.d.) ([2]; template (N) = C, temp35N-1): n.d. (Minimal inserted products (<2%) were detected after incubation for 20 minutes with 1500 μM nucleoside 5′-triphosphate and 50 nM enzyme.); Vmax ([2]; template (N) = G, temp35N-1): 0.061 % min^−1; Efficiency (Vmax/KM) ([2]; template (N) = T, temp35N-1): 3.1 × 10^2 % min^−1M^−1; Km ([2]; template (N) = T, temp35N-1): 170 µM; Vmax ([2]; template (N) = T, temp35N-1): 0.053 % min^−1
6 | CC#Cc1cc(C=O)n([C@H]2C[C@H](O)[C@@H](COP(=O)(O)OP(=O)(O)OP(=O)(O)O)O2)c1 [dPa′TP] | – | – | – | 2.6 × 10^5 % min^−1M^−1 | 82 µM | 21 % min^−1 | – | – | – | 4.1 × 10^4 % min^−1M^−1 | 190 µM | 7.8 % min^−1 | – | – | – | 1.8 × 10^5 % min^−1M^−1 | 110 µM | 20 % min^−1 | 1.6 × 10^3 % min^−1M^−1 | 80 µM | efficiency of incorporation opposite Ds in the template relative to that of dPaTP ([2]; KF exo−, template Ds): 3.9 fold; Efficiency (Vmax/KM) ([2]; template (N) = C, temp35N-1): 7.4 × 10^2 % min^−1M^−1; Km ([2]; template (N) = C, temp35N-1): 80 µM; Vmax ([2]; template (N) = C, temp35N-1): 0.059 % min^−1; Vmax ([2]; template (N) = G, temp35N-1): 0.13 % min^−1; Efficiency (Vmax/KM) ([2]; template (N) = T, temp35N-1): 1.6 × 10^3 % min^−1M^−1; Km ([2]; template (N) = T, temp35N-1): 120 µM; Vmax ([2]; template (N) = T, temp35N-1): 0.19 % min^−1
7 | Cc1cn([C@H]2C[C@H](O)[C@@H](COP(=O)(O)OP(=O)(O)OP(=O)(O)O)O2)c(=O)[nH]c1=O [dTTP, reference compound] | – | – | – | 1.9 × 10^3 % min^−1M^−1 | 220 µM | 0.41 % min^−1 | 1.1 × 10^2 % min^−1M^−1 | 880 µM | 0.097 % min^−1 | 1.0 × 10^2 % min^−1M^−1 | 1400 µM | 0.14 % min^−1 | – | – | – | 4.0 × 10^6 % min^−1M^−1 | 0.7 µM | 2.8 % min^−1 | 2.1 × 10^3 % min^−1M^−1 | 140 µM | Vmax ([2]; template (N) = G, temp35N-1): 0.29 % min^−1
8 | biotin-16-uridine-5′-triphosphate [Bio-UTP, reference compound] | – | – | – | – | – | – | – | – | – | – | – | – | – | – | – | – | – | – | – | – | biotinylation of transcripts by incorporation opposite A (T7 RNA polymerase; DNAcont5 template, 2 mM Bio-UTP, 2 mM ATP, GTP and CTP): completely biotinylated; transcripts biotinylated by misincorporation opposite bases G, C and T (T7 RNA polymerase; DNAcont6 template, 2 mM Bio-UTP, 2 mM ATP, GTP and CTP): 21%
9 | dATP [reference compound] | 4.6 × 10^3 % min^−1M^−1 | 500 µM | 2.3 % min^−1 | 2.4 × 10^3 % min^−1M^−1 | 150 µM | 0.36 % min^−1 | 4.3 × 10^4 % min^−1M^−1 | 490 µM | 21 % min^−1 | 3.7 × 10^4 % min^−1M^−1 | 570 µM | 21 % min^−1 | 4.1 × 10^6 % min^−1M^−1 | 0.81 µM | 3.3 % min^−1 | – | – | – | – | – | –
